Columns and labels:
[1] = tested on: 129 Sv autosomal Alport mice; assay: Bosentan treatment of 129 Sv autosomal Alport mice; format: in vivo, mouse
Procedure: It is known that matrix metalloproteinases (MMPs), transforming growth factor beta 1 (TGF-β1), and monocyte chemoattractant protein-1 (MCP-1) contribute to the progression of Alport glomerular pathology (Cosgrove et al., 2000, Am J Pathol; 157(5):1649-59; Rao et al., 2006, Am J Pathol; 169(1):32-46; Eisberg et al., 2006, PLoS Med; 3(4):e100). 129 Sv autosomal Alport mice and wild type littermates were treated with 100 mg/kg Bosentan or with […] vehicle by oral gavage from 2 to 7 weeks of age. One kidney was prepared for immunohistochemistry, and the other used for glomerular RNA isolation. […] MMP-9 expression was not affected; however this MMP has been shown not to contribute to progression of Alport glomerular disease (Andrews et al., 2000, Am J Pathol; 157(1):303-11). Kidney cryosections from these same mice were immunostained using antibodies against fibronectin, to assess interstitial fibrosis, and CD11b, to assess the degree of monocytic interstitial infiltration.

[2] = tested on: 129 autosomal Alport mice; assay: Endothelin receptor blockade (Bosentan or Sitaxentan) in 129 autosomal Alport mice; format: in vivo, mouse; details: for Mesangial filopodial invasion and deposition of laminin 211 in the glomerular capillaries: Alport mouse model; for Ameliorating Alport renal disease (comparison of the two antagonists) / GBM structural abnormalities / Glomerular expression of MMPs and pro-inflammatory cytokines / Mesangial process invasion of the glomerular capillaries / Onset and progression of proteinuria: treated from 2 to 7 weeks of age
Procedure: With this example, 129 autosomal Alport mice were given either Bosentan (an endothelin A and B receptor antagonist) or Sitaxentan (an endothelin A receptor antagonist) from 2 to 7 weeks of age. Mice were analyzed longitudinally for proteinuria and BUN, glomerular RNA for gene expression of MMPs and pro-inflammatory cytokines by real time RT-PCR, and tissue was analyzed histochemistry and immunohistochemistry for pathologic changes.
To determine whether ETR antagonism prevents mesangial filopodia formation in vivo, we treated 129 Sv Alport mice with either Bosentan (ETAR and ETBR antagonist) or Sitaxentan (an ETAR antagonist) from 2 weeks to 7 weeks of age.

cultured mesangial cells = assay: Endothelin-1 induced drebrin-positive actin microspikes in mesangial cells; format: cell-based, mouse
Procedure: (§1) FIG. 30. Treatment of mesangial cells with endothelin-1 activates CDC42 and induces the formation of drebrin-positive actin microspikes; microspikes and CDC42 activation are inhibited by pre-treatment of cells with Sitaxentan. A) Cultured mesangial cells were serum starved, pretreated for 1 hour with or without Sitaxentan, treated for 30 minutes with endothelin-1, fixed with acetone, and dual stained with anti-drebrin antibodies (red) and phalloidin (green). Drebrin-positive microspikes (filopodia, denoted by arrowheads) are highly abundant on the endothelin-treated cells, but not detected when the cells are pre-treated with Sitaxentan. B) Cells were treated as in A, then lysates prepared and assayed by ELISA for GTP-CDC42.
(§2) To address this, serum-starved cultured mesangial cells were pre-treated (or not) with the ETAR antagonist, Sitaxentan, and then stimulated the cells with endothelin-1. Cells were then dual labeled with anti-drebrin antibodies (drebrin stabilizes actin filaments in filopodia) and phalloidin. […] Lysates from cultured mesangial cells were further analysed using these same conditions for the activation of CDC42 using a commercial ELISA assay for GTP-CDC42.

CDC42 = assay: ELISA for GTP-CDC42 in endothelin-1 treated mesangial cells; format: cell-based, mouse
Procedure: as §1, §2

[3] = tested on: primary cultured mesangial cells; assay: Boyden chamber (Transwell) cell migration assay, wild type mesangial cells; format: cell-based, mouse; details: relative to 10% FCS, p<0.05
Procedure: MES Migration (insert). Transwell cell migration assays were performed as described by Daniel et al. (Daniel et al., 2012, Lab Invest; 92(6): 812-26) with some modifications. 8 micron, 24-well plate control inserts (BD Bioscience, Bedford, Mass.) were coated overnight at 4° C. with 100 μl of 0.1% gelatin/PBS then washed 1× with PBS. MES cultures were incubated in 1% FCS overnight, then 0.05% BSA-containing media for at least 8 hours, washed 1× with PBS and carefully tryspinized to ensure a single cell suspension and limited “clumping” of cells. After serum-neutralization and subsequent centrifugation, ˜100,000 cells were resuspended in 1.5 mls of 0.05% BSA media containing activators/inhibitors. The wells of a 24-well plate were filled with 0.75 mls of 10% FCS-containing media plus activators/inhibitors (excluding 0.05% BSA control well). 0.5 ml of cell-suspension was loaded into the gelatin-coated insert and the insert placed in a well. Wells were visually inspected for bubbles beneath insert and equal distribution of cell-suspension. Cells were allowed to migrate overnight (˜18 hrs). Using a moistened cotton swab, non-migrated cells were liberated from the apical-side of the insert by gentle but firm rubbing. A second swab repeated the removal and was followed by a single wash with PBS. Inserts were fixed, stained and washed (2×) in companion 24 well plate(s) containing 0.5 mls MEOH, 0.5 mls 1% Toluidine Blue in 1% Borax and 0.5 mls distilled H2O, respectively. Inserts were air dried and counted at 100× magnification. Five fields were counted on each insert including one center and four periphery areas. Data was expressed as relative to 10% FCS control well (set equal to one).

[4] = tested on: Alport mice on the 129 Sv background; assay: Treatment of Alport mice with Rac1 inhibitor; format: in vivo, mouse; details: injected once daily from 2 weeks to 6 weeks of age; relative to saline
Procedure: FIG. 9. Treatment of Alport mice with Rac1 inhibitors partially ameliorates mesangial cell process invasion of the glomerular capillary tufts. […] Kidney cryosections were analyzed by dual immunofluorescence immunostaining using antibodies against either laminin α2 (B and E) or integrin α8 (A and D). […] represent a merging of results from staining with laminin α2 and integrin α8. The degree of mesangial process invasion of the glomerular capillary tufts was ameliorated in the Rac1 inhibitor-treated mice relative to mice injected with saline.
To examine the effect of Rac1 inhibitors on Alport glomerular disease progression, either wild type or Alport mice were treated with inhibitors by IP injection from 2 weeks to 6 weeks of age. Glomeruli were examined for mesangial process invasion of the capillary tufts by dual immunofluorescence microscopy using antibodies specific for either integrin α8 or the GBM marker laminin α5. […] Combined, the data in FIG. 7, FIG. 8, and FIG. 9 confirm that mesangial process invasion of the glomerular capillaries is a Rac1-dependent process, and that Rac1 activation is attenuated by integrin α1 deletion both in vitro and in vivo.
Immunofluorescence microscopy. Fresh frozen kidneys were sectioned at 8 μm and acetone fixed. […]

[5] = tested on: integrin α1-null mesangial cells; assay: Boyden chamber (Transwell) cell migration assay, integrin α1-null mesangial cells; format: cell-based, mouse; details: relative to 10% FCS
Procedure: MES Migration (insert). Transwell cell migration assays were performed as described by Daniel et al. (Daniel et al., 2012, Lab Invest; 92(6): 812-26) with some modifications. 8 micron, 24-well plate control inserts (BD Bioscience, Bedford, Mass.) were coated overnight at 4° C. with 100 μl of 0.1% gelatin/PBS then washed 1× with PBS. MES cultures were incubated in 1% FCS overnight, then 0.05% BSA-containing media for at least 8 hours, washed 1× with PBS and carefully tryspinized to ensure a single cell suspension and limited “clumping” of cells. After serum-neutralization and subsequent centrifugation, ˜100,000 cells were resuspended in 1.5 mls of 0.05% BSA media containing activators/inhibitors. The wells of a 24-well plate were filled with 0.75 mls of 10% FCS-containing media plus activators/inhibitors (excluding 0.05% BSA control well). 0.5 ml of cell-suspension was loaded into the gelatin-coated insert and the insert placed in a well. Wells were visually inspected for bubbles beneath insert and equal distribution of cell-suspension. Cells were allowed to migrate overnight (˜18 hrs). […] Inserts were air dried and counted at 100× magnification. Five fields were counted on each insert including one center and four periphery areas. Data was expressed as relative to 10% FCS control well (set equal to one).

[6] = tested on: cultured wild type mesangial cells; assay: LPS-induced actin cytoskeletal rearrangement (phalloidin staining); format: cell-based, mouse; details: 10 ng/ml LPS; 10 μM Rac-1 inhibitor or 1 μM CDC42 inhibitor; blinded
Procedure: Activation of mesangial cell cultures by treatment with LPS. Sub-confluent mesangial cells were tryspinized; plated at low density on Rat tail type 1 collagen (BD Biosciences) coated cytology slides (VWR) and incubated overnight in 1% FCS-containing media. One hour after the addition of serum-free media, 1 μM CDC42 Inhibitor (KSC-23-233) and 10 μM Rac-1 Inhibitor, NSC-23766 (Tocris) were added to individual slides and allowed to incubate for an additional hour. 10 ng/ml Lipopolysaccharides (Sigma-Aldrich) was added to cells, incubated 1 hour, fixed in ice cold acetone for 5 minutes and allowed to air dry ˜2 hours. Cells were stained with a 1:100 dilution of antibodies specific for CDC42 (10155-1-AP, PROTEINTECH™), and phalloidin (Molecular Probes) imaged. Untreated, LPS alone and LPS plus inhibitors treatments were repeated on two different derivations of primary mesangial cells with qualitatively consistent results.

[7] = tested on: 129 Sv autosomal Alport mice; assay: Sitaxentan treatment of 129 Sv autosomal Alport mice; format: in vivo, mouse
Procedure: FIG. 32. […] At least 6 glomeruli from at least 3 independent animals per group were analyzed by quantifying red fluorescence in circumferential capillary loops (defined by laminin α5 immunostaining in green) using NIH image J software. Mesangial angles were excluded. A) An example of how the capillaries were partitioned for these measures. B) Immunogold labeling for integrin α8 in a filopodial cross-section on the sub-endothelial aspect of an Alport capillary loop (arrow). Note the absence of immunogold labeling in the podocyte pedicles (asterisks) and the fenestrated endothelium (arrowheads). C) Quantitative results for red fluorescence in the capillary loops.
FIG. 33. […] Urine was collected at the indicated time points and analyzed for albumin using an ELISA kit. Albumin measures were normalized to urinary creatinine. Note that measurable albumin in the Sitaxentan-treated mice was not detected until 6 weeks of age indicating a delayed onset of glomerular disease.
129 Sv autosomal Alport mice were given Sitaxentan once daily by oral gavage from 2 weeks to 7 weeks of age. Kidney cryosections were immunostained using antibodies for laminin α2 and integrin α8 to determine the effect of drug treatment on laminin 211 deposition in the GBM or laminin α5 and integrin α8 to determine the degree of mesangial filopodial invasion in the glomerular capillaries. In addition, transmission electron microscopy was used to determine whether the ETAR antagonist ameliorates GBM damage.

[8] = 100 mg/kg oral gavage from 2 to 7 weeks of age, vs vehicle
[9] = serum-starved cells, 30 minutes
[10] = pretreated 1 hour, endothelin-1 for 30 minutes

Compound: COc1ccccc1Oc1c(NS(=O)(=O)c2ccc(C(C)(C)C)cc2)nc(-c2ncccn2)nc1OCCO [Bosentan, 4-tert-butyl-N-[6-(2-hydroxy-ethoxy)-5-(2-methoxy-phenoxy)[2,{acuteover (2)}]-bipyrimidin-4-yl]-benzenesulfonamide monohydrate]
- Glomerular MMP-9 expression [1, 8]: not affected
- Glomerular mRNA expression of IL-6 [1, 8]: significant reduction
- Glomerular mRNA expression of MMP-10 [1, 8]: significant reduction
- Glomerular mRNA expression of MMP-12 [1, 8]: significant reduction
- Glomerular mRNA expression of TGF-β1 [1, 8]: significant reduction
- Interstitial fibrosis (fibronectin immunostaining) ([1]; 7 weeks of age, vs vehicle): near complete blockade
- Mesangial process invasion of glomerular capillaries (integrin α8 / laminin α5 immunostaining) ([1]; 7 weeks of age, vs vehicle): largely localized to the mesangial matrix, with occasional interposition into the capillary loops observed
- Monocytic interstitial infiltration (CD11b immunostaining) ([1]; 7 weeks of age, vs vehicle): near complete blockade
- Glomerular expression of MCP-1 ([1]; Bosentan-treated Alport mice vs vehicle): significantly reduced
- Mesangial filopodial invasion and deposition of laminin 211 in the glomerular capillaries [2]: highly effective
- Ameliorating Alport renal disease (comparison of the two antagonists) [2]: equally effective
- GBM structural abnormalities [2]: ameliorating
- Glomerular expression of MMPs and pro-inflammatory cytokines [2]: significantly reducing
- Mesangial process invasion of the glomerular capillaries [2]: markedly reduced
- Onset and progression of proteinuria [2]: delaying the onset and progression

Compound: endothelin-1: stimulus activating endothelin receptors on mesangial cells
- Formation of drebrin-positive filopodial microspikes on stimulation (cultured mesangial cells; [9]): induces
- CDC42 activation (GTP-CDC42) on stimulation (CDC42; [9]): significantly activates

Compound: CCn1c(-c2nonc2N)nc2c(C#CC(C)(C)O)ncc(OC[C@H]3CCCNC3)c21 [GSK 690693]
- Migration of wild type mesangial cells [3]: not affected

Compound: CCN(CC)CCCC(C)Nc1nc(C)cc(Nc2ccc3nc(C)cc(N)c3c2)n1 (centres unmarked) [NSC 23766]
- Degree of mesangial process invasion of the glomerular capillary tufts [4]: ameliorated
- Migration of wild type mesangial cells [3]: significantly reduced
- Integrin α1-null mesangial cell migration [5]: unaffected
- LPS-induced morphological change (filopodia / actin spikes) in presence of inhibitor [6]: could not be distinguished in blinded experiments form untreated wild type mesangial cells

Compound: Cc1cc2c(cc1CC(=O)c1sccc1S(=O)(=O)Nc1onc(C)c1Cl)OCO2 [Sitaxentan, N-(4-chloro-3-methyl-1,2-oxazol-5-yl)-2-[2-(6-methyl-2H-1,3-benzodioxol-5-yl)acetyl]thiophene-3-sulfonamide]
- Mesangial filopodial invasion and deposition of laminin 211 in the glomerular capillaries [2]: highly effective
- Ameliorating Alport renal disease (comparison of the two antagonists) [2]: equally effective
- GBM structural abnormalities [2]: ameliorating
- Glomerular expression of MMPs and pro-inflammatory cytokines [2]: significantly reducing
- Mesangial process invasion of the glomerular capillaries [2]: markedly reduced
- Onset and progression of proteinuria [2]: delaying the onset and progression
- GBM architecture (transmission electron microscopy) ([7]; 7 weeks of age): normalization
- Interstitial fibrosis (fibronectin immunostaining) ([7]; 7 weeks of age): profoundly ameliorated
- Monocyte recruitment to the renal interstitium (CD11b immunostaining) ([7]; 7 weeks of age): profoundly ameliorated
- Capillary integrin α8 immunostaining (quantified red fluorescence) ([7]; at least 6 glomeruli from at least three mice per group): normalization
- Age at which proteinuria was first detected ([7]; normally detected by 3 weeks of age): 6 weeks of age
- Mesangial filopodial invasion of glomerular capillaries ([7]; once daily oral gavage from 2 weeks to 7 weeks of age, vs vehicle): near complete absence
- Proteinuria after the onset ([7]; urinary albumin normalized to creatinine): significantly reduced
- Glomerular expression of MMP-10, -12 and MCP-1 compared with the reduction seen with Bosentan ([7]; with the exception of TGF-β1): quantitatively similar results
- Endothelin-1 induced formation of drebrin-positive microspikes, with antagonist pretreatment (cultured mesangial cells; [10]): blocks
- Endothelin-1 induced CDC42 activation (GTP-CDC42), with antagonist pretreatment (CDC42; [10]): prevents

Compound: ML141
- Migration of wild type mesangial cells [3]: significantly reduced
- Integrin α1-null mesangial cell migration [5]: unaffected
- LPS-induced morphological change (filopodia / actin spikes) in presence of inhibitor [6]: could not be distinguished in blinded experiments form untreated wild type mesangial cells

Reference: patent publication US9719981B2, “RAC1 inhibitors for the treatment of alport glomerular disease” (Father Flanagan's Boys' Home, priority 2012, dated 2017)
